The text below walks through data of patent EP4660182A1, “NAV1.7- AND/OR NAV1.8-INHIBITING ARYL PYRIDINE COMPOUNDS, PROCESSES FOR THE PREPARATION THEREOF, COMPOSITIONS, USES, METHODS FOR TREATMENT USING SAME, AND KITS” (Eurofarma Laboratórios S.A., priority 2023, dated 2024).

Some results are limits rather than exact numbers.

The target in assay [1] is T1, human sodium channels Nav 1.8 (Homo sapiens, UniProt Q9Y5Y9).
T1 construct: expressed in transfected cells
Kind of assay: Automated whole-cell voltage-clamp (ScreenPatch 384P) sodium current block, Nav 1.8. The format is cell-based. To be noted: CHO cells stably expressing human Nav 1.8; inactivation step -40 mV 8 s, test step 10 mV (TP1A); eight concentrations; exposure at least five minutes; room temperature; read-out: Nav1.8 IC50. On the procedure: (§1) Biological assays were performed on Chinese hamster ovary (CHO) cells that express human sodium channels Nav 1.8 or Nav 1.7 in a stable manner.
(§2) The experimental protocol voltage-clamp using the whole cell configuration was established on the automated ScreenPatch® 384P platform (SP384PE, Nanion Technologies, Livingston, NJ) and the results were recorded with a Nanion 384-well Patch Clamp chip (NPC) (Nanion Technologies, Livingston, NJ).
(§3) Formula I compounds were diluted in eight concentrations in the extracellular solution composed of saline solution, buffered with HEPES (mM): NaCl, 137; KCl, 4; CaCl2, 3,8; MgCl2, 1; HEPES, 10; Glucose, 10; pH 7.4. The […], 50; CsF, 90; MgCl2, 5; EGTA, 5; HEPES, 10; pH 7.2. The duration of exposure of each compound with cells expressing Nav 1.7 or Nav 1.8 was at least five minutes and the assays were performed at room temperature.
(§4) The measurements of the sodium currents of Nav 1.8 and Nav 1.7 were obtained using the voltage protocol described below.
(§5) A holding voltage of -100 mV was established followed by an inactivation voltage step at -40 mV for 8 seconds, followed by a step of -100 mV for 20 ms, followed by a 20 ms step for 10 mV for Nav 1.8 or 0 mV for Nav 1.7 (TP1A) before returning to the holding voltage of -100 mV.
(§6) The protocol was repeated at a frequency of 0.05 Hz and the amplitude of the current was quantified throughout the recording of the TP1A phase. The variation in the amplitude of the peak current was evaluated according to the formula described below, after exposing the cells expressing the channels to each concentration of the different compounds: % Block = (1−(ITP1A,molecule/ITP1A,basal)×100%, [formula] wherein ITP1A,basal and ITP1A,molecule represent the peaks of sodium current input into TP1A before exposure to the compound and in the presence of the compound, respectively.
(§7) Data were obtained by nonlinear regression (nonlinear least squares) with XLfit for Excel (Microsoft, Redmond, WA).
(§8) The compounds were tested in at least one assay to obtain the value of CI50. For compounds that were tested in two or more assays, the results are described as the means of the CI50 values.

For assay [2], the target named is T2, human sodium channels Nav 1.7 (Homo sapiens, UniProt Q15858).
T2 construct: expressed in transfected cells
T2 sequence (Q15858 whole entry): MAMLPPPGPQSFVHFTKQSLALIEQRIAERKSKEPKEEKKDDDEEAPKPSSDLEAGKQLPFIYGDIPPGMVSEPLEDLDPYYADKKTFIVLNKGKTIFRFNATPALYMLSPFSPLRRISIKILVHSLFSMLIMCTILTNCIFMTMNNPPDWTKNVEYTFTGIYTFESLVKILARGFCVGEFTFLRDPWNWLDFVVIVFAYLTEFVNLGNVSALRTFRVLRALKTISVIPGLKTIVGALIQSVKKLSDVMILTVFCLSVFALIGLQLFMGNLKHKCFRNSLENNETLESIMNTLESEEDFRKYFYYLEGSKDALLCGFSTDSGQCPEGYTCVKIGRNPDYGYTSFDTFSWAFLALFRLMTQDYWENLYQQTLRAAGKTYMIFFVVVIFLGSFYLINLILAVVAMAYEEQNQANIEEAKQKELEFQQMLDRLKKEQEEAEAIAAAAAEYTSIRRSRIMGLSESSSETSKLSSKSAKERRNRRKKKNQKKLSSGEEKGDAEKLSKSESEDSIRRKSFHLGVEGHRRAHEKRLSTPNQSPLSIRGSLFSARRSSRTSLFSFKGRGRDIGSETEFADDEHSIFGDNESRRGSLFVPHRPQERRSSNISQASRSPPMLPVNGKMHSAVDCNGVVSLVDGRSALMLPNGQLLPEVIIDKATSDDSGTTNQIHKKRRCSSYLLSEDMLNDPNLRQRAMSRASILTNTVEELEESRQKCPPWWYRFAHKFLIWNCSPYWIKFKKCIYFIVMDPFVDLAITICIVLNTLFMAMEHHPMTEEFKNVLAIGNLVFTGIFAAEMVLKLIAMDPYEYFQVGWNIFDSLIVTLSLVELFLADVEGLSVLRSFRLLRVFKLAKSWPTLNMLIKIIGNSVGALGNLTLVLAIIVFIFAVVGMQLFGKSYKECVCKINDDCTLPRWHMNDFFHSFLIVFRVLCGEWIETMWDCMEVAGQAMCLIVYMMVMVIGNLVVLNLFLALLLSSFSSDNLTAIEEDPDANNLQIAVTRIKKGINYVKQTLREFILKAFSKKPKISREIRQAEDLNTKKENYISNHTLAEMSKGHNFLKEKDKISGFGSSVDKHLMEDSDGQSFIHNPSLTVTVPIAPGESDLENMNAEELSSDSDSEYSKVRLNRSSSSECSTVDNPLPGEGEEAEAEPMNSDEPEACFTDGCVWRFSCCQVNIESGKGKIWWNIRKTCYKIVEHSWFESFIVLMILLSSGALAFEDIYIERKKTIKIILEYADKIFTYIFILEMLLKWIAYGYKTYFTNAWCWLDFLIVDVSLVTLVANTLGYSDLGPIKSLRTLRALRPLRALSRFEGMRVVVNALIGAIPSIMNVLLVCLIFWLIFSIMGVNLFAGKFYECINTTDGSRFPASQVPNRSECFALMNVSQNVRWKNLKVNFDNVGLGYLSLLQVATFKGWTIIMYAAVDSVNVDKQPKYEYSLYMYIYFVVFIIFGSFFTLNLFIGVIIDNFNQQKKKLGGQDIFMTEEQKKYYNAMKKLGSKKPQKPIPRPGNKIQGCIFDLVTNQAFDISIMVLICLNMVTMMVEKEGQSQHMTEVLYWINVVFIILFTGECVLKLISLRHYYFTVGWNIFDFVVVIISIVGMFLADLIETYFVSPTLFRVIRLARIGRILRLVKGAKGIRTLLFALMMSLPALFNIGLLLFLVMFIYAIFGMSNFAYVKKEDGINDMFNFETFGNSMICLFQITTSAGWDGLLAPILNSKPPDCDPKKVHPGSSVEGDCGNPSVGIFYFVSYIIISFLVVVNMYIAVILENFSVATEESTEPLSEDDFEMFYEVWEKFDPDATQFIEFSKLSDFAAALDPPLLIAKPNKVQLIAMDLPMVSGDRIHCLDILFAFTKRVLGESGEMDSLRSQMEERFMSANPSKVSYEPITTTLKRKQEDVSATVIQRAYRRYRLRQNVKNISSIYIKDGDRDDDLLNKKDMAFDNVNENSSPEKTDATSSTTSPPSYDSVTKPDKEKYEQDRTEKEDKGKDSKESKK
Kind of assay: Automated whole-cell voltage-clamp (ScreenPatch 384P) sodium current block, Nav 1.7. The note with it: CHO cells stably expressing human Nav 1.7; inactivation step -40 mV 8 s, test step 0 mV (TP1A); eight concentrations; exposure at least five minutes; room temperature; read-out: Nav1.7 IC50. It counts as cell-based. On the procedure: as §1, §2, §3, §4, §5, §6, §7, §8

T1 sequence (Q9Y5Y9 whole entry): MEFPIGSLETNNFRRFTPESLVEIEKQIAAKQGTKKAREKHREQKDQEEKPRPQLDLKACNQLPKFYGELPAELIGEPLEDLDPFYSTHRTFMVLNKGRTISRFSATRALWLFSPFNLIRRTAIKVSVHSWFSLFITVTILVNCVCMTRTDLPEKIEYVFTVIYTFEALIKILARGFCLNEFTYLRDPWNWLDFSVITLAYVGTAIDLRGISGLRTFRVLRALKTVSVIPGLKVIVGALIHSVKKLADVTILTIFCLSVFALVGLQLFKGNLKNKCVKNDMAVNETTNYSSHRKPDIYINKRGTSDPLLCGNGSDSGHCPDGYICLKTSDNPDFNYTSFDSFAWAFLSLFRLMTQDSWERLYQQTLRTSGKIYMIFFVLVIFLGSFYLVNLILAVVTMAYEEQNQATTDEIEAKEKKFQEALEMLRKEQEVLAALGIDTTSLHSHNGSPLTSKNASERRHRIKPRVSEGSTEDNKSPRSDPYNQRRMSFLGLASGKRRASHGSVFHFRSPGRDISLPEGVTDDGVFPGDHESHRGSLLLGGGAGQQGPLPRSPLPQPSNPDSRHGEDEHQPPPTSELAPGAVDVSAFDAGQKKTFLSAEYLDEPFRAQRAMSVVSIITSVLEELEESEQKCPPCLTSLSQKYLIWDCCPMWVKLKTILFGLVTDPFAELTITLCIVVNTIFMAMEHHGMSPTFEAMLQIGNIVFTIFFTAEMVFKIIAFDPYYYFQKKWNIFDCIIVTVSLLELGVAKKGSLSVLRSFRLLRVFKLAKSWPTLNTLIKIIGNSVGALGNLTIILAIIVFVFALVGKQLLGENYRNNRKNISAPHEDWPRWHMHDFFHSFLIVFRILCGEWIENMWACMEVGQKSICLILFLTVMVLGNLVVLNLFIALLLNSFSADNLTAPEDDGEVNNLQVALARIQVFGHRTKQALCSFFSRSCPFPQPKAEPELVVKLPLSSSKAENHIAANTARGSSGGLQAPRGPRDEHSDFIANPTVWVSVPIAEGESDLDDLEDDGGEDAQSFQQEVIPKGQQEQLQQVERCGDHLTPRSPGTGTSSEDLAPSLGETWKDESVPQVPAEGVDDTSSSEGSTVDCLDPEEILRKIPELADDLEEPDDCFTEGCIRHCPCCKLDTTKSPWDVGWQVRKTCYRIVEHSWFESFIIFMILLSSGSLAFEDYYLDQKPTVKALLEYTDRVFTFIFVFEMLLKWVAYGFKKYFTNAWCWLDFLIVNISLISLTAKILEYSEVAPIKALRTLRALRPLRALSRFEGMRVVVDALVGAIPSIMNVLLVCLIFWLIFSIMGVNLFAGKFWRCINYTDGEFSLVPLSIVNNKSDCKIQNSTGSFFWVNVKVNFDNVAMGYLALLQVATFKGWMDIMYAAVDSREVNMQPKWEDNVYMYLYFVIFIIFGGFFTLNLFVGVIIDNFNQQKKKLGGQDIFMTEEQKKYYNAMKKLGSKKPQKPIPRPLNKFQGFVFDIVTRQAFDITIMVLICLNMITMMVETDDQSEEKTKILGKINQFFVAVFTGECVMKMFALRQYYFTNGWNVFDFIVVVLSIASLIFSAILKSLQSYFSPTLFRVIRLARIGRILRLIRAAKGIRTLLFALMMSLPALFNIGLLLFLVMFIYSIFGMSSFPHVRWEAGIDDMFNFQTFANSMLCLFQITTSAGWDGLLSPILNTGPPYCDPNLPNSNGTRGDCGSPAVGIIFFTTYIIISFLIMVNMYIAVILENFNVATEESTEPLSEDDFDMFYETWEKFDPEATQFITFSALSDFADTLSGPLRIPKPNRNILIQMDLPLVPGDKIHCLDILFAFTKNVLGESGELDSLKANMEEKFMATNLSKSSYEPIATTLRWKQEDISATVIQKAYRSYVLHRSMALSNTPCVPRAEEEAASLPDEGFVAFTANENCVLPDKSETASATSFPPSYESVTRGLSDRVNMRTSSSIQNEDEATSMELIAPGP

As to `CCOc1ccc(-c2cncc(C(=O)N/N=C/c3cc(OC4CCC4)cnc3F)n2)cn1` [Compound 36, (E)-N'-((5-cyclobutoxy-2-fluoropyridine-3-yl)methylene)-6-(6-ethoxypyridine-3-yl)pyrazine-2-carbohydrazide], the values for the IC50 in assay [1] and in assay [2] were < 0.5 µM and > 1 µM, respectively.

As to `CCOc1ccc(-c2cncc(C(=O)N/N=C/c3cc(N4CC(O)C4)ccc3F)n2)cn1` [Compound 37, (E)-6-(6-ethoxypyridine-3-yl)-N'-(2-fluoro-5-(3-hydroxyazetidine-1-yl)benzylidene) pyrazine-2-carbohydrazide], the IC50 in assay [1] and in assay [2] was > 1 µM in each case.

For `CCOc1ccc(-c2cncc(C(=O)N/N=C/c3cc(N4CCC4)ccc3F)n2)cn1` [Compound 38, (E)-N'-(5-(azetidin-1-yl)-2-fluorobenzylidene)-6-(6-ethoxypyridine-3-yl)pyrazine-2-carbohydrazide], the IC50 – broadly, the concentration needed to halve the response being measured – in assay [1] is < 0.5 µM; in assay [2], > 1 µM.

Take `CCOc1ccc(-c2cncc(C(=O)N/N=C/c3cc(OC4CN(C)C4)ccc3F)n2)cn1` [Compound 39, (E)-6-(6-ethoxypyridine-3-yl)-N'-(2-fluoro-5-((1-methylazetidine-3-yl)oxy)benzylidene) pyrazine-2-carbohydrazide]: the IC50 in assay [1] and in assay [2] was > 1 µM in each case.

As for `CCOc1ccc(-c2cncc(C(=O)N/N=C/c3cccc(O)n3)n2)cn1` [Compound 40, (E)-6-(6-ethoxypyridine-3-yl)-N'-((6-hydroxypyridine-2-yl)methylene)pyrazine-2-carbohydrazide], the IC50 in assay [1] and in assay [2] was > 1 µM each time.

On to `CCOc1ccc(-c2cncc(C(=O)N/N=C/c3cc(OC)cnc3O)n2)cn1` [Compound 42, (E)-6-(6-ethoxypyridine-3-yl)-N'-((2-hydroxy-5-methoxypyridine-3-yl)methylene) pyrazine-2-carbohydrazide], for which the IC50 in assay [1] and in assay [2] was > 1 µM each time.

On to `CCOc1ccc(-c2cncc(C(=O)N/N=C/c3cc(O)nc(OC)c3)n2)cn1` [Compound 43, (E)-6-(6-ethoxypyridine-3-yl)-N'-((2-hydroxy-6-methoxypyridine-4-yl)methylene) pyrazine-2-carbohydrazide], for which the IC50 in assay [1] and in assay [2] was > 1 µM each time.

As for `CCOc1ccc(-c2cncc(C(=O)N/N=C/c3cc(OC)cc(O)c3F)n2)cn1` [Compound 44, (E)-6-(6-ethoxypyridine-3-yl)-N'-(2-fluoro-3-hydroxy-5-methoxybenzylidene) pyrazine-2-carbohydrazide], the IC50 in assay [1] and in assay [2] was > 1 µM throughout.

For the compound `CCOc1ccc(-c2cncc(C(=O)N/N=C/c3cccn3C)n2)cn1` [Compound 50, (E)-6-(6-ethoxypyridine-3-yl)-N'-((1-methyl-1H-pyrrole-2-yl)methylene)pyrazine-2-carbohydrazide], the IC50 in assay [1] was < 0.5 µM; in assay [2], > 1 µM.

With `CCOc1ccc(-c2cncc(C(=O)N/N=C/c3ccnn3C)n2)cn1` [Compound 51, (E)-6-(6-ethoxypyridine-3-yl)-N'-((1-methyl-1H-pyrazole-5-yl)methylene)pyrazine-2-carbohydrazide], the IC50 in assay [1] and in assay [2] was > 1 µM throughout.

On to `CCOc1ccc(-c2cncc(C(=O)N/N=C/c3ccnn3CC)n2)cn1` [Compound 52, (E)-6-(6-ethoxypyridine-3-yl)-N'-((1-ethyl-1H-pyrazole-5-yl)methylene)pyrazine-2-carbohydrazide], for which the concentration for half-maximal inhibition (IC50) was < 0.5 µM in assay [1] and > 1 µM in assay [2].

Take `CCOc1ccc(-c2cncc(C(=O)N/N=C/c3cncn3C(C)C)n2)cn1` [Compound 53, (E)-6-(6-ethoxypyridine-3-yl)-N'-((1-isopropyl-1H-imidazole-5-yl)methylene)pyrazine-2-carbohydrazide]: the IC50 in assay [1] and in assay [2] was > 1 µM throughout.

In the case of `CCOc1ccc(-c2cncc(C(=O)N/N=C/c3ccnn3C(C)C)n2)cn1` [Compound 54, (E)-6-(6-ethoxypyridine-3-yl)-N'-((1-isopropyl-1H-pyrazole-5-yl)methylene)pyrazine-2-carbohydrazide], the concentration for half-maximal inhibition (IC50) in assay [1] was < 0.5 µM; in assay [2] it was > 1 µM.

In the case of `CCOc1ccc(-c2cncc(C(=O)N/N=C/c3occc3OC)n2)cn1` [Compound 55, (E)-6-(6-ethoxypyridine-3-yl)-N'-((3-methoxyfuran-2-yl)methylene)pyrazine-2-carbohydrazide], the IC50 in assay [1] and in assay [2] was > 1 µM throughout.

For `CCOc1ccc(-c2cncc(C(=O)N/N=C/c3[nH]ccc3C)n2)cn1` [Compound 56, (E)-6-(6-ethoxypyridine-3-yl)-N'-((3-methyl-1H-pyrrole-2-yl)methylene)pyrazine-2-carbohydrazide], the IC50 in assay [1] was 0.5 to 1 µM; in assay [2] it was > 1 µM.

On to `CCOc1ccc(-c2cncc(C(=O)N/N=C/c3c[nH]nc3C)n2)cn1` [Compound 57, (E)-6-(6-ethoxypyridine-3-yl)-N'-((3-methyl-1H-pyrazole-4-yl)methylene)pyrazine-2-carbohydrazide], for which the IC50 in assay [1] and in assay [2] was > 1 µM throughout.

As to `CCOc1ccc(-c2cncc(C(=O)N/N=C/c3cncn3C)n2)cn1` [Compound 58, (E)-6-(6-ethoxypyridine-3-yl)-N'-((1-methyl-1H-imidazole-5-yl)methylene)pyrazine-2-carbohydrazide], the IC50 in assay [1] and in assay [2] was > 1 µM throughout.

Regarding `CCOc1ccc(-c2cncc(C(=O)N/N=C/c3[nH]ccc3C#N)n2)cn1` [Compound 59, (E)-N'-((3-cyano-1H-pyrrole-2-yl)methylene)-6-(6-ethoxypyridine-3-yl)pyrazine-2-carbohydrazide], the IC50 in assay [1] and in assay [2] was > 1 µM throughout.

On to `CCOc1ccc(-c2cncc(C(=O)N/N=C/c3nccn3CC)n2)cn1` [Compound 60, (E)-6-(6-ethoxypyridine-3-yl)-N'-((1-ethyl-1H-imidazole-2-yl)methylene)pyrazine-2-carbohydrazide], for which the IC50 was 0.5 to 1 µM in assay [1] and > 1 µM in assay [2].

In the case of `CCOc1ccc(-c2cncc(C(=O)N/N=C/c3ocnc3C)n2)cn1` [Compound 61, (E)-6-(6-ethoxypyridine-3-yl)-N'-((4-methyloxazole-5-yl)methylene)pyrazine-2-carbohydrazide], the 50% inhibitory concentration (IC50) in assay [1] and in assay [2] was > 1 µM in each case.

On to `CCOc1ccc(-c2cncc(C(=O)N/N=C/c3ncoc3C)n2)cn1` [Compound 62, (E)-6-(6-ethoxypyridine-3-yl)-N'-((5-methyloxazole-4-yl)methylene)pyrazine-2-carbohydrazide], for which the IC50 in assay [1] is 0.5 to 1 µM; in assay [2], > 1 µM.

Regarding `CCOc1ccc(-c2nc(C(=O)N/N=C/c3cc(OC)ccc3F)cnc2N)cn1` [Compound 63, (E)-5-amino-6-(6-ethoxypyridine-3-yl)-N'-(2-fluoro-5-methoxybenzylidene) pyrazine-2-carbohydrazide], the IC50 in assay [1] is 0.5 to 1 µM; in assay [2], > 1 µM.

For `CCOc1ccc(-c2cnc(N)c(C(=O)N/N=C/c3cc(OC)ccc3F)n2)cn1` [Compound 64, (E)-3-amino-6-(6-ethoxypyridine-3-yl)-N'-(2-fluoro-5-methoxybenzylidene) pyrazine-2-carbohydrazide], the IC50 in assay [1] was 0.5 to 1 µM; in assay [2], > 1 µM.

For `CCOc1ccc(-c2cnc(O)c(C(=O)N/N=C/c3cc(OC)cnc3F)n2)cn1` [Compound 65, (E)-6-(6-ethoxypyridine-3-yl)-N'-((2-fluoro-5-methoxypyridine-3-yl)methylene)-3-hydroxypyrazine-2-carbohydrazide], the IC50 in assay [1] and in assay [2] was > 1 µM each time.

In the case of `CCOc1ccc(-c2nc(C(=O)N/N=C/c3cc(OC)ccc3F)cnc2O)cn1` [Compound 66, (E)-6-(6-ethoxypyridine-3-yl)-N'-(2-fluoro-5-methoxybenzylidene)-5-hydroxypyrazine-2-carbohydrazide], the half-maximal inhibitory concentration (IC50) in assay [1] and in assay [2] was > 1 µM each time.

In the case of `CCOc1ccc(-c2nc(C(=O)N/N=C/c3cc(OC)cnc3F)cnc2O)cn1` [Compound 67, (E)-6-(6-ethoxypyridine-3-yl)-N'-((2-fluoro-5-methoxypyridine-3-yl)methylene)-5-hydroxypyrazine-2-carbohydrazide], the IC50 in assay [1] and in assay [2] was > 1 µM throughout.
